Data reported in US8802597B2, “Herbicidal pyrimidines” (E I du Pont de Nemours and Company, priority 2003, dated 2014).
Where two headings read alike, the source gives them in different places.

Tests used:
Test in all cases: Test C pre/postemergence
Format in all cases: in vivo
corn (Zea mays) = details: Zea mays, pre-emergence, Preemergence
Summary of the method: (§1)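 Visual injury ratings, 0 (no effect) to 100 (complete control), made 12 to 14 days after treatment by comparison with untreated controls. Greenhouse plants received test chemical in a surfactant-containing non-phytotoxic solvent, either preemergence on planted seeds or postemergence at the 1- to 4-leaf stage.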

[1] = tested on: common (oilseed) sunflower (Helianthus annuus); details: Helianthus annuus, pre-emergence, Preemergence, read-out: Plant response rating, Sunflower
Summary of the method: as §1

[2] = tested on: eastern black nightshade (Solanum ptycanthum); details: Solanum, pre-emergence, Preemergence, read-out: Plant response rating, Nightshade
Summary of the method: as §1

[3] = tested on: bermudagrass (Cynodon dactylon); details: Cynodon dactylon; for pest or weed control at 31 g/ha: 31 g ai/ha; for pest or weed control at 62 g/ha: 62 g ai/ha; for pest or weed control at 125 g/ha: 125 g ai/ha; for pest or weed control at 250 g/ha: 250 g ai/ha
Summary of the method: as §1

[4] = tested on: johnsongrass (Sorghum halepense); details: Sorghum halepense; for pest or weed control at 31 g/ha: 31 g ai/ha; for pest or weed control at 62 g/ha: 62 g ai/ha; for pest or weed control at 125 g/ha: 125 g ai/ha; for pest or weed control at 250 g/ha: 250 g ai/ha
Summary of the method: as §1

[5] = tested on: Surinam grass (Brachiaria decumbens); details: Urochloa decumbens; for pest or weed control at 125 g/ha: 125 g ai/ha; for pest or weed control at 62 g/ha: 62 g ai/ha
Summary of the method: as §1

[6] = tested on: morningglory (Ipomoea coccinea); details: Ipomoea; for pest or weed control at 31 g/ha: 31 g ai/ha; for pest or weed control at 62 g/ha: 62 g ai/ha; for pest or weed control at 125 g/ha: 125 g ai/ha; for pest or weed control at 250 g/ha: 250 g ai/ha
Summary of the method: as §1

[7] = 31 g ai/ha, scale 0 to 100, 0 no effect, 100 complete control
[8] = 62 g ai/ha, scale 0 to 100, 0 no effect, 100 complete control
[9] = post-emergence, Postemergence, scale 0 to 100 (0 no effect, 100 complete control), read-out: Bermudagrass plant response rating
[10] = pre-emergence, Preemergence, scale 0 to 100, 0 no effect, 100 complete control, read-out: Plant response rating, Bermudagrass
[11] = pre-emergence, Preemergence, scale 0 to 100, read-out: Plant response rating, Bermudagrass
[12] = post-emergence, Postemergence, scale 0 to 100 (0 no effect, 100 complete control), read-out: Johnsongrass plant response rating
[13] = pre-emergence, Preemergence, scale 0 to 100, 0 no effect, 100 complete control, read-out: Plant response rating, Johnsongrass
[14] = pre-emergence, Preemergence, scale 0 to 100, read-out: Plant response rating, Johnsongrass
[15] = post-emergence, Postemergence, scale 0 to 100 (0 no effect, 100 complete control), read-out: Surinam Grass plant response rating
[16] = post-emergence, Postemergence, scale 0 to 100 (0 no effect, 100 complete control), read-out: Morningglory plant response rating
[17] = pre-emergence, Preemergence, scale 0 to 100, 0 no effect, 100 complete control, read-out: Plant response rating, Morningglory
[18] = pre-emergence, Preemergence, scale 0 to 100, read-out: Plant response rating, Morningglory

CCOC(=O)c1nc(-c2ccc(Cl)cc2)nc(N)c1Cl [Compound 64, ethyl 6-amino-5-chloro-2-(4-chlorophenyl)-4-pyrimidinecarboxylate]
Corn plant response rating (crop injury, 0 = no effect, 100 = complete kill) at 31 g/ha (corn (Zea mays); 31 g ai/ha, scale 0 to 100, 0 no effect, 100 complete control, read-out: Plant response rating, Corn): 0% | Corn plant response rating (crop injury, 0 = no effect, 100 = complete kill) at 62 g/ha (corn (Zea mays); 62 g ai/ha, scale 0 to 100, 0 no effect, 100 complete control, read-out: Plant response rating, Corn): 0% | Corn plant response rating (crop injury, 0 = no effect, 100 = complete kill) at 125 g/ha (corn (Zea mays); 125 g ai/ha, scale 0 to 100, read-out: Plant response rating, Corn): 20% | Corn plant response rating (crop injury, 0 = no effect, 100 = complete kill) at 250 g/ha (corn (Zea mays); 250 g ai/ha, scale 0 to 100): 30% | pest or weed control at 31 g/ha [1, 7]: 0% | pest or weed control at 62 g/ha [1, 8]: 0% | pest or weed control at 125 g/ha ([1]; 125 g ai/ha, scale 0 to 100): 30% | pest or weed control at 250 g/ha ([1]; 250 g ai/ha, scale 0 to 100): 85% | pest or weed control at 31 g/ha [2, 7]: 5% | pest or weed control at 62 g/ha [2, 8]: 85% | pest or weed control at 125 g/ha ([2]; 125 g ai/ha, scale 0 to 100): 85% | pest or weed control at 250 g/ha ([2]; 250 g ai/ha, scale 0 to 100): 95% | pest or weed control at 31 g/ha ([3]; post-emergence, Postemergence, read-out: Plant response rating (scale of 0 to 100), Bermudagrass): 20% | pest or weed control at 62 g/ha [3, 9]: 60% | pest or weed control at 125 g/ha [3, 9]: 65% | pest or weed control at 250 g/ha ([3]; post-emergence, Postemergence, scale 0 to 100, read-out: Plant response rating, Bermudagrass): 70% | pest or weed control at 31 g/ha [3, 10]: 0% | pest or weed control at 62 g/ha [3, 10]: 0% | pest or weed control at 125 g/ha [3, 11]: 20% | pest or weed control at 250 g/ha [3, 11]: 20% | pest or weed control at 31 g/ha ([4]; post-emergence, Postemergence, read-out: Plant response rating (scale of 0 to 100), Johnsongrass): 60% | pest or weed control at 62 g/ha [4, 12]: 80% | pest or weed control at 125 g/ha [4, 12]: 85% | pest or weed control at 250 g/ha ([4]; post-emergence, Postemergence, scale 0 to 100, read-out: Plant response rating, Johnsongrass): 85% | pest or weed control at 31 g/ha [4, 13]: 5% | pest or weed control at 62 g/ha [4, 13]: 5% | pest or weed control at 125 g/ha [4, 14]: 50% | pest or weed control at 250 g/ha [4, 14]: 60% | pest or weed control at 125 g/ha [5, 15]: 60% | pest or weed control at 31 g/ha ([5]; post-emergence, Postemergence, 31 g ai/ha, read-out: Plant response rating (scale of 0 to 100), Surinam Grass): 20% | pest or weed control at 62 g/ha [5, 15]: 60% | pest or weed control at 62 g/ha ([5]; pre-emergence, Preemergence, scale 0 to 100, 0 no effect, 100 complete control, read-out: Plant response rating, Surinam Grass): 0% | pest or weed control at 125 g/ha ([5]; pre-emergence, Preemergence, scale 0 to 100, read-out: Plant response rating, Surinam Grass): 50% | pest or weed control at 250 g/ha ([5]; pre-emergence, Preemergence, 250 g ai/ha, scale 0 to 100, read-out: Plant response rating, Surinam Grass): 90% | pest or weed control at 31 g/ha ([6]; post-emergence, Postemergence, read-out: Plant response rating (scale of 0 to 100), Morningglory): 90% | pest or weed control at 62 g/ha [6, 16]: 90% | pest or weed control at 125 g/ha [6, 16]: 90% | pest or weed control at 250 g/ha ([6]; post-emergence, Postemergence, scale 0 to 100, read-out: Plant response rating, Morningglory): 90% | pest or weed control at 31 g/ha [6, 17]: 0% | pest or weed control at 62 g/ha [6, 17]: 0% | pest or weed control at 125 g/ha [6, 18]: 0% | pest or weed control at 250 g/ha [6, 18]: 10%
